“And” between values parts separate entries of the source, which are not always exact repeats. Identical values can stand only once. Inconclusive results and toxic doses are left out.
Tested on: BDF1 mice, P388 leukemia ip, median survival T/C
Assay: NCI In Vivo Anticancer Drug Screen. Data for tumor model P388 Leukemia (intraperitoneal) in B6D2F1 (BDF1) mice
Conditions: endpoint: median survival time, higher = longer survival
In short: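 Steps: implant the tumour, treat one group with compound and another with vehicle, record survival, then divide treated by control.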

[1] = dose: 12.5 mg/kg/injection, schedule: Q01DX009 (ip), vehicle: saline with Tween-80
[2] = dose: 25.0 mg/kg/injection, schedule: Q01DX009 (ip), vehicle: saline
[3] = dose: 100.0 mg/kg/injection, schedule: Q01DX009 (ip), vehicle: saline
[4] = dose: 100.0 mg/kg/injection, schedule: Q04DX003 (ip), vehicle: saline
[5] = dose: 200.0 mg/kg/injection, schedule: Q01DX009 (ip), vehicle: saline
[6] = dose: 200.0 mg/kg/injection, schedule: Q04DX003 (ip), vehicle: saline
[7] = dose: 400.0 mg/kg/injection, schedule: Q04DX003 (ip), vehicle: saline
[8] = dose: 100.0 mg/kg/injection, schedule: Q04DX003 (ip), vehicle: Klucel (hydroxypropylcellulose) (HPC)
[9] = dose: 200.0 mg/kg/injection, schedule: Q04DX003 (ip), vehicle: Klucel (hydroxypropylcellulose) (HPC)
[10] = dose: 400.0 mg/kg/injection, schedule: Q04DX003 (ip), vehicle: Klucel (hydroxypropylcellulose) (HPC)
[11] = dose: 100.0 mg/kg/injection, schedule: Q04DX003 (ip), vehicle: saline with Tween-80
[12] = dose: 200.0 mg/kg/injection, schedule: Q04DX003 (ip), vehicle: saline with Tween-80
[13] = dose: 100.0 mg/kg/injection, schedule: Q01DX009 (ip), vehicle: saline with Tween-80
[14] = dose: 200.0 mg/kg/injection, schedule: Q01DX009 (ip), vehicle: saline with Tween-80
[15] = dose: 400.0 mg/kg/injection, schedule: Q01DX009 (ip), vehicle: saline with Tween-80
[16] = dose: 50.0 mg/kg/injection, schedule: Q01DX009 (ip), vehicle: saline with Tween-80
[17] = dose: 50.0 mg/kg/injection, schedule: Q01DX009 (ip), vehicle: saline

CN(N=O)C(=O)N[C@@H](C=O)[C@@H](O)[C@H](O)[C@H](O)CO
T/C (dose: 17.0 mg/kg/injection, schedule: Q01DX009 (ip), vehicle: water): 118 % of control | T/C (dose: 39.0 mg/kg/injection, schedule: Q01DX009 (ip), vehicle: water): 161 % of control | T/C (dose: 40.0 mg/kg/injection, schedule: Q01DX010 (ip), vehicle: other): 154 % of control | T/C (dose: 50.0 mg/kg/injection, schedule: Q01DX009 (ip), vehicle: other): 171 % of control | T/C (dose: 58.0 mg/kg/injection, schedule: Q01DX009 (ip), vehicle: water): 157 % of control and 181 % of control | T/C (dose: 80.0 mg/kg/injection, schedule: Q01DX010 (ip), vehicle: other): 118 % of control | T/C (dose: 87.0 mg/kg/injection, schedule: Q01DX009 (ip), vehicle: water): 154 % of control and 170 % of control | T/C (dose: 100.0 mg/kg/injection, schedule: Q04DX002 (ip), vehicle: saline): 109 % of control | T/C (dose: 130.0 mg/kg/injection, schedule: Q01DX009 (ip), vehicle: water): 89 % of control | T/C (dose: 200.0 mg/kg/injection, schedule: Q04DX002 (ip), vehicle: saline): 100 % of control | T/C (dose: 400.0 mg/kg/injection, schedule: Q04DX002 (ip), vehicle: saline): 109 % of control

O=C1OC(O)C(Cl)=C1Cl (configuration not stated)
T/C (dose: 1.56 mg/kg/injection, schedule: Q01DX009 (ip), vehicle: saline with Tween-80): 101 % of control | T/C (dose: 3.12 mg/kg/injection, schedule: Q01DX009 (ip), vehicle: saline with Tween-80): 107 % of control | T/C (dose: 6.25 mg/kg/injection, schedule: Q01DX009 (ip), vehicle: saline with Tween-80): 109 % of control and 115 % of control | T/C [1]: 115 % of control

[N-]=[N+]=NCC(=O)NCc1cnccn1
T/C (dose: 12.5 mg/kg/injection, schedule: Q01DX009 (ip), vehicle: saline): 116 % of control | T/C [2]: 116 % of control | T/C [3]: 106 % of control | T/C [4]: 109 % of control | T/C [5]: 116 % of control | T/C [6]: 108 % of control | T/C (dose: 400.0 mg/kg/injection, schedule: Q01DX009 (ip), vehicle: saline): 119 % of control | T/C [7]: 109 % of control

O=C(NO)c1ccccc1
T/C (dose: 50.0 mg/kg/injection, schedule: Q01DX009 (ip), vehicle: Klucel (hydroxypropylcellulose) (HPC)): 105 % of control and 116 % of control | T/C (dose: 50.0 mg/kg/injection, schedule: Q04DX003 (ip), vehicle: Klucel (hydroxypropylcellulose) (HPC)): 103 % of control and 116 % of control | T/C (dose: 100.0 mg/kg/injection, schedule: Q01DX009 (ip), vehicle: Klucel (hydroxypropylcellulose) (HPC)): 91 % of control and 104 % of control and 105 % of control | T/C [8]: 106 % of control and 108 % of control and 113 % of control | T/C (dose: 200.0 mg/kg/injection, schedule: Q01DX009 (ip), vehicle: Klucel (hydroxypropylcellulose) (HPC)): 107 % of control and 109 % of control | T/C [9]: 104 % of control (2×) and 108 % of control | T/C [10]: 100 % of control and 116 % of control

CC(=O)[C@H]1CC[C@H]2[C@@H]3C[C@H](C)C4=CC(=O)CC[C@]4(C)[C@H]3[C@@H](O)C[C@]12C
T/C [11]: 107 % of control | T/C [12]: 100 % of control

CCOC(=O)c1ccc(NS(=O)(=O)c2ccc(C)cc2)cc1
T/C [13]: 106 % of control | T/C [14]: 106 % of control | T/C [15]: 88 % of control

CN1c2ccc(Cl)cc2C(=O)NC1c1ccc([N+](=O)[O-])s1 (configuration not stated)
T/C [16]: 98 % of control and 110 % of control | T/C [13]: 104 % of control and 113 % of control | T/C [14]: 112 % of control

Nn1c(-c2ccc([N+](=O)[O-])cc2)nc2ccccc2c1=O
T/C [16]: 90 % of control | T/C [13]: 91 % of control | T/C [14]: 91 % of control

CC(=S)Nc1ccc2ccccc2c1
T/C [13]: 107 % of control | T/C [11]: 118 % of control | T/C [14]: 107 % of control | T/C [12]: 109 % of control | T/C [15]: 119 % of control | T/C (dose: 400.0 mg/kg/injection, schedule: Q04DX003 (ip), vehicle: saline with Tween-80): 122 % of control

CCC1NC(C)(C)CC1=C(C)C (configuration not stated)
T/C (dose: 1.56 mg/kg/injection, schedule: Q01DX009 (ip), vehicle: saline): 104 % of control | T/C (dose: 3.13 mg/kg/injection, schedule: Q01DX009 (ip), vehicle: saline): 104 % of control | T/C (dose: 6.25 mg/kg/injection, schedule: Q01DX009 (ip), vehicle: saline): 104 % of control

O=C(CBr)c1ccc(F)cc1
T/C (dose: 0.78 mg/kg/injection, schedule: Q01DX009 (ip), vehicle: Klucel (hydroxypropylcellulose) (HPC)): 110 % of control | T/C (dose: 1.56 mg/kg/injection, schedule: Q01DX009 (ip), vehicle: Klucel (hydroxypropylcellulose) (HPC)): 110 % of control | T/C (dose: 3.12 mg/kg/injection, schedule: Q01DX009 (ip), vehicle: Klucel (hydroxypropylcellulose) (HPC)): 112 % of control | T/C (dose: 6.25 mg/kg/injection, schedule: Q01DX009 (ip), vehicle: Klucel (hydroxypropylcellulose) (HPC)): 118 % of control

COc1cccc2c1C(=O)c1c(O)c3c(c(O)c1C2=O)C[C@@](O)(/C(C)=N/NC(=O)c1ccccc1)C[C@@H]3OC1CC(N(C)C)C(O)C(C)O1 (some centres not stated)
T/C (dose: 0.78 mg/kg/injection, schedule: Q01DX009 (ip), vehicle: water): 161 % of control | T/C (dose: 1.56 mg/kg/injection, schedule: Q01DX009 (ip), vehicle: water): 186 % of control | T/C (dose: 3.13 mg/kg/injection, schedule: Q01DX009 (ip), vehicle: water): 236 % of control | T/C (dose: 6.25 mg/kg/injection, schedule: Q01DX009 (ip), vehicle: water): 96 % of control

O=C(c1ccc(C(=O)N2CC2)cc1)N1CC1
T/C (dose: 5.0 mg/kg/injection, schedule: Q01DX009 (ip), vehicle: saline with Tween-80): 95 % of control | T/C (dose: 20.0 mg/kg/injection, schedule: Q01DX009 (ip), vehicle: saline with Tween-80): 109 % of control

CCOC(=O)C(C)C(O)(c1ccccc1)c1ccccc1 (configuration not stated)
T/C [8]: 100 % of control | T/C [9]: 104 % of control | T/C [10]: 104 % of control

CCCN(CCC)CCSC(=S)NCCOC
T/C [16]: 100 % of control | T/C [13]: 113 % of control

CCCCCC1(C)OCC(C)O1 (configuration not stated)
T/C [16]: 101 % of control | T/C [13]: 106 % of control | T/C [14]: 109 % of control

O=Cc1c[nH]c2nccnc12
T/C [2]: 98 % of control | T/C [17]: 101 % of control | T/C [3]: 99 % of control and 115 % of control | T/C [4]: 100 % of control | T/C [5]: 107 % of control and 108 % of control | T/C [6]: 101 % of control | T/C [7]: 103 % of control

NC(N)=NCCCCCC(=O)Oc1ccc([N+](=O)[O-])cc1
T/C [17]: 96 % of control | T/C (dose: 50.0 mg/kg/injection, schedule: Q04DX003 (ip), vehicle: saline): 90 % of control and 91 % of control | T/C [3]: 99 % of control | T/C [4]: 87 % of control and 90 % of control | T/C [5]: 115 % of control | T/C [6]: 91 % of control and 100 % of control

O=C(NCC(O)CCl)c1ccc([N+](=O)[O-])cc1 (configuration not stated)
T/C (dose: 100.0 mg/kg/injection, schedule: Q01DX001 (ip), vehicle: Klucel (hydroxypropylcellulose) (HPC)): 100 % of control | T/C (dose: 200.0 mg/kg/injection, schedule: Q01DX001 (ip), vehicle: Klucel (hydroxypropylcellulose) (HPC)): 100 % of control | T/C (dose: 400.0 mg/kg/injection, schedule: Q01DX001 (ip), vehicle: Klucel (hydroxypropylcellulose) (HPC)): 110 % of control

O=C(c1ccccc1Br)C(Br)C(Br)c1ccccc1 (configuration not stated)
T/C [8]: 120 % of control | T/C [9]: 110 % of control

C=CCCCCCCCCCCCCCC
T/C (dose: 145.0 mg/kg/injection, schedule: Q01DX010 (ip), vehicle: saline): 104 % of control | T/C (dose: 220.0 mg/kg/injection, schedule: Q01DX010 (ip), vehicle: saline): 113 % of control | T/C (dose: 330.0 mg/kg/injection, schedule: Q01DX010 (ip), vehicle: saline): 104 % of control | T/C (dose: 500.0 mg/kg/injection, schedule: Q01DX010 (ip), vehicle: saline): 118 % of control

CCOc1cc(C=Nc2cc(Cl)c(O)c(Cl)c2)ccc1N(CCCl)CCCl
T/C (dose: 16.0 mg/kg/injection, schedule: Q04DX003 (ip), vehicle: saline with Tween-80): 154 % of control | T/C (dose: 16.5 mg/kg/injection, schedule: Q04DX003 (ip), vehicle: saline with Tween-80): 157 % of control | T/C (dose: 25.0 mg/kg/injection, schedule: Q04DX003 (ip), vehicle: saline with Tween-80): 173 % of control | T/C (dose: 37.5 mg/kg/injection, schedule: Q04DX003 (ip), vehicle: saline with Tween-80): 207 % of control

CCOc1ccc(NC(=O)C23CC4CC(CC(C4)C2)C3)cc1
T/C [1]: 100 % of control | T/C (dose: 25.0 mg/kg/injection, schedule: Q01DX009 (ip), vehicle: saline with Tween-80): 100 % of control | T/C [16]: 100 % of control

— PubChem BioAssay AID328 (DTP/NCI, 2004)
